Measurements: US20070066572A1, “Neuroprotection by positively-charged nitroxides” (priority 2005, published 2007)

How the values were obtained:
hSOD1-G93A mice = experiment: In vivo attenuation of ALS symptoms in transgenic G93A-SOD1 mice; settings: 40 mg/kg or about 1 mg/mouse/day in drinking water
Source text: Animal model: A transgenic mouse line overexpressing mutant G93A-SOD1 gene (TgN(SOD1-G93A)1Gur, herein called hSOD1-G93A, a high expression mouse line) and the mating pairs were purchased from Jackson Laboratory (Bar Harbor, Me.). Mice were housed and bred as described previously (Liu R, et al., “Enhanced oxygen radical production in a transgenic mouse model of familial amyotrophic lateral sclerosis,” Ann. Neurol. 44:763-70 (1998)) and in accordance with the University of North Dakota Animal Care and Use Committee guidelines.
At age 40-50 days, transgenic littermates (wild-type normal mice and hSOD1-G93A mice) were divided into three groups (n=10) and administered with vehicle alone (regular drinking water), Mito-Tempol (40 mg/kg or about 1 mg/mouse/day) or Tempol (40 mg/kg or about 1 mg/mouse/day), respectively. The onset of disease was defined as the day when a sharp decrease in muscle strength was detected. The initial symptoms of hind leg paralysis was considered as the disease progression as well.

[1] = test system: Bovine aortic endothelial cells (BAECs); experiment: Glu/GO-induced caspase-3 activity (apoptosis) in BAECs; type: cell-based
Procedure: Cell line: Bovine aortic endothelial cells (BAECs; American Type Culture Collection) were grown to confluence in DMEM (Calbiochem; San Diego, Calif.) containing 10% fetal bovine serum (FBS; Invitrogen; Carlsbad, Calif.) insulin (10 μg/ml; Invitrogen), transferrin (5 μg/ml; Invitrogen), glutamine (4 mM; Sigma-Aldrich), penicillin (100 units/ml; Sigma-Aldrich) and streptomycin (100 μg/ml; Sigma-Aldrich) and were incubated at 37° C. in a humidified atmosphere of 5% CO2 and 95% air. The BAECs were used between passages four and twelve, as described by Balla G, et al., “Ferritin: a cytoprotective antioxidant strategem of endothelium,” J. Biol. Chem. 267:18148-18153 (1992). On the day of treatment, the medium was replaced with DMEM containing 2% FBS.
Glucose/Glucose Oxidase (Glu/GO): GO was obtained from Sigma Aldrich (Milwaukee, Wis.); 13-hydroperoxyoctadecadienoic acid (13-HpODE, a lipoxygenase-catalyzed oxidative metabolite of linolieic acid) and β-hydroxyoctadecadienoic acid (13-HODE, […]) were obtained from Cayman Chemical Co. (Ann Arbor, Mich.); 2′,7′-dichlorodihydrofluorescein diacetate (DCFH-DA) was obtained from Molecular Probes (Eugene, Oreg.); N-carbobenzoxyl-L-leucinyl-L-norleucinal (MG-132) was obtained from Biomol (Plymouth Meeting, Pa.); and clastolactacystin-α-lactone (Lac) was obtained from Sigma Aldrich.
BAECs were incubated with Glu/GO (20 μM), 13-HpODE (25 μM) or 13-HODE (25 μM) for different time periods (0, 2, 4, 8 or 16 hours).
Caspase-3 Activity: After treatment with Glu-GO and antioxidants, cells were washed twice with Dulbecco's phosphate-buffered saline (DPBS) and lysed with cell lysis buffer. Caspase-3 activity was measured with acetyl Asp-Glu-Val-Asp 7-amido-4-methylcoumarin (Ac-DEVD-AFC), as described in a kit from Sigma Aldrich. Caspase-3 hydrolyzes Ac-DEVD-AFC to release a fluorescent moiety, 7-amino-4-methylcoumarin (AMC). Briefly, treated cells were suspended in 100 μl of lysis buffer and passed through a 24-guage needle 10 times to ensure complete lysis. The resulting lysate was centrifuged at 4° C. at 10,000 rmp. […]

CC1(C)CC(OCCCCC[P+](c2ccccc2)(c2ccccc2)c2ccccc2)CC(C)(C)N1[O].[Br-] [Mito-Tempol]
disease progression (hSOD1-G93A mice; FIG. 2): delayed disease progression
lifespan (hSOD1-G93A mice; FIG. 3): increased the lifespan
running activity as measured by Rotarod (motor function) (hSOD1-G93A mice; FIG. 4): promoted the running activity
Glu/GO-mediated caspase-3 activation ([1]; BAECs pretreated at 0.5 and 1 μM, Glu/GO eight hours, FIG. 5): greatly inhibited
potency in inhibiting peroxide-induced apoptosis relative to Tempol ([1]; BAECs, Glu/GO, FIG. 5): more potent than Tempol
endothelial oxidative damage and apoptosis ([1]; Mito-Tempol prepared by the modified method): inhibited endothelial oxidative damage and apoptosis
